# Results as given in patent publication US20230399341A1, “7-PHENYL SUBSTITUTED 2-AMINOQUINAZOLINE INHIBITORS OF HPK1” (MERCK SHARP & DOHME LLC, priority 2020, published 2023).
# Molecular target: T1, Human HPK1, catalytic domain (Homo sapiens, UniProt Q92918)
# T1 sequence (Q92918 1-346): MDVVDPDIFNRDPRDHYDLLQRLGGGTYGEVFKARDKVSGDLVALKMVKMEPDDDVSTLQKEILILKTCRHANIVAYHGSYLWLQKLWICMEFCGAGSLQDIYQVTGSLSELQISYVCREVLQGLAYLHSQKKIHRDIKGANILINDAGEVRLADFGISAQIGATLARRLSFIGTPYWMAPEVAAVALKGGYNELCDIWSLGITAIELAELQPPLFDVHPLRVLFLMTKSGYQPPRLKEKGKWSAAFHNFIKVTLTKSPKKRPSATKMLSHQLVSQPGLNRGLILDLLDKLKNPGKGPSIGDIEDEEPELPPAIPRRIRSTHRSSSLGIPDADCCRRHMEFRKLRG
# Assay: HPK1-SLP76 TR-FRET Assay
# Format: biochemical
# Conditions: 75 pM HPK1, ATP 10 uM, SLP76 10 nM, 30 min pre-incubation, 60 min reaction
row,IC50,SMILES
1,17.9 nM,"COc1cc2c(cc1Nc1ncc3ccc(-c4cnccc4Cl)cc3n1)CNCC2 [Compound 1-38, 7-(4-chloropyridin-3-yl)-N-(6-methoxy-1,2,3,4-tetrahydroisoquinolin-7-yl)quinazolin-2-amine]"
2,0.0898 nM,"Cc1c(-c2cc3nc(Nc4ccc5c(c4)CC(C)(C)N(C)C5)ncc3c(N)c2F)cnc2c1NCCO2 (single isomer, unassigned) [Compound 2-126, 6-fluoro-7-(8-methyl-2,3-dihydro-1H-pyrido[2,3-b][1,4]oxazin-7-yl)-N2-(2,3,3-trimethyl-1,2,3,4-tetrahydroisoquinolin-6-yl)quinazoline-2,5-diamine]"
3,3.17 nM,"COc1cc2c(cc1Nc1ncc3ccc(Nc4cc(S(C)(=O)=O)c(C)cc4C)cc3n1)CN(C)CC2 [Compound 3-42, N~7~-[2,4-dimethyl-5-(methyl-sulfonyl)phenyl]-N~2~-(6-methoxy-2-methyl-1,2,3,4-tetra-hydroisoquinolin-7-yl)quinaz-oline-2,7-diamine]"
4,53.4 nM,"COc1cc2c(cc1Nc1ncc3ccc(-c4ccc5c(c4)CCO5)cc3n1)CNCC2 [Compound 1-72, 7-(2,3-dihydro-1-benzofuran-5-yl)-N-(6-methoxy-1,2,3,4-tetrahydroisoquinolin-7-yl)quinazolin-2-amine]"
5,9.91 nM,"COc1cc2c(cc1Nc1ncc3ccc(-c4ccc(N)nc4)cc3n1)CNCC2 [Compound 1-27, 7-(6-aminopyridin-3-yl)-N-(6-methoxy-1,2,3,4-tetrahydroisoquinolin-7-yl)quinazolin-2-amine]"
6,0.0309 nM,"CNC(=O)C1(c2ccc(Nc3ncc4c(N)c(F)c(-c5cnc6c(c5C)NCCO6)cc4n3)cc2)CCC1 [Compound 2-82, 1-(4-((5-amino-6-fluoro-7-(8-methyl-2,3-dihydro-1H-pyrido[2,3-b][1,4]oxazin-7-yl)quinazolin-2-yl)amino)phenyl)-N-methylcyclobutane-1-carboxamide]"
7,799 nM,"COc1cc2c(cc1Nc1ncc3ccc(N4CCn5c(C)nnc5C4)cc3n1)CN(C)CC2 [Compound 3-57, N-(6-methoxy-2-methyl-1,2,3,4-tetrahydroisoquinolin-7-yl)-7-(3-methyl-5,6-dihydro[1,2,4]-triazolo[4,3-a]pyrazin-7(8H)-yl)quinazolin-2-amine]"
8,51.8 nM,"COc1cc2c(cc1Nc1ncc3ccc(NCc4ccc5c(c4)C(=O)NC5)cc3n1)CN(C)CC2 [Compound 3-28, 6-[({2-[(6-methoxy-2-methyl-1,2,3,4-tetrahydroisoquinolin-7-yl)amino]quinazolin-7-yl}-amino)methyl]-2,3-dihydro-1H-isoindol-1-one]"
9,292 nM,"COc1cc2c(cc1Nc1ncc3ccc(NC[C@@H]4CCC(=O)N4)cc3n1)CN(C)CC2 [Compound 3-45, (5S)-5-[({2-[(6-methoxy-2-meth-yl-1,2,3,4-tetrahydroisoquinolin-7-yl)amino]quinazolin-7-yl}-amino)methyl]pyrrolidin-2-one]"
10,94.2 nM,"CNCC1CN(c2ccc3cnc(Nc4cc5c(cc4OC)CCN(C)C5)nc3c2)C(=O)O1 (racemic) [Compound 3-12, (S and R)-3-12-[(6-methoxy-2-methyl-1,2,3,4-tetrahydroiso-quinolin-7-yl)amino]quinazolin-7-yl}-5-[(methylamino)methyl]-1,3-oxazolidin-2-one]"
11,131 nM,"Cc1ccc(C#N)cc1-c1cc2nc(Nc3ccc(CS(C)(=O)=O)cc3)ncc2c(N)c1F [Compound 2-53, 3-[5-amino-6-fluoro-2-({4-[(methylsulfonyl)methyl]phenyl}amino)quinazolin-7-yl]-4-methylbenzonitrile]"
12,0.0508 nM,"Cc1c(-c2cc3nc(Nc4ccc(CS(C)(=O)=O)cc4)ncc3c(N)c2F)cnc2c1NCCO2 [Compound 2-24, 6-fluoro-7-(8-methyl-2,3-dihydro-1H-pyrido[2,3-b][1,4]oxazin-7-yl)-N˜2˜-{4-[(methylsulfonyl)methyl]phenyl}quinazoline-2,5-diamine]"
13,0.0761 nM,"Cc1c(-c2cc3nc(Nc4ccc5c(c4)C(C)(C)OC5=O)ncc3c(N)c2F)cnc2c1NCCO2 [Compound 2-41, 5-{[5-amino-6-fluoro-7-(8-methyl-2,3-dihydro-1H-pyrido[2,3-b][1,4]oxazin-7-yl)quinazolin-2-yl]amino}-3,3-dimethyl-2-benzofuran-1(3H)-one]"
14,48.1 nM,"COc1cc(S(N)(=O)=O)ccc1Nc1ncc2c(N)c(F)c(-c3cnc4c(c3C)NCCO4)cc2n1 [Compound 2-6, 4-{[5-amino-6-fluoro-7-(8-methyl-2,3-dihydro-1H-pyrido[2,3-b][1,4]oxazin-7-yl)quinazolin-2-yl]amino}-3-methoxybenzene-1-sulfonamide]"
15,535 nM,"COc1cc2c(cc1Nc1ncc3ccc(N[C@H]4CCN(C(=O)C5CC5)C4)cc3n1)CN(C)CC2 [Compound 3-22, cyclopropyl[(3S)-3-({2-[(6-meth-oxy-2-methyl-1,2,3,4-tetrahydro-isoquinolin-7-yl)amino]quinaz-olin-7-yl}amino)pyrrolidin-1-yl]-methanone]"
16,45.2 nM,"COc1cc2c(cc1Nc1ncc3ccc(N4C(=O)OCC4(C)C)cc3n1)CN(C)CC2 [Compound 3-6, 3-{2-[(6-methoxy-2-methyl-1,2,3,4-tetrahydroisoquinolin-7-yl)amino]quinazolin-7-yl}-4,4-dimethyl-1,3-oxazolidin-2-one]"
17,462 nM,"COc1cc2c(cc1Nc1ncc3ccc(-c4cc(NC(C)=O)ccc4C)cc3n1)CNCC2 [Compound 1-85, N-(3-{2-[(6-methoxy-1,2,3,4-tetrahydroisoquinolin-7-yl)amino]quinazolin-7-yl}-4-methylphenyl)acetamide]"
18,0.186 nM,"Cc1c(-c2cc3nc(Nc4cccc(S(=O)(=O)NC(C)(C)C)c4)ncc3c(N)c2F)cnc2c1NCCO2 [Compound 2-33, 3-{[5-amino-6-fluoro-7-(8-methyl-2,3-dihydro-1H-pyrido[2,3-b][1,4]oxazin-7-yl)quinazolin-2-yl]amino}-N-tert-butylbenzene-1-sulfonamide]"
19,2.81 nM,"COc1cc2c(cc1Nc1ncc3c(N)c(F)c(Nc4cc(CO)ccn4)cc3n1)CN(C)CC2 [Compound 3-80, [2-({5-amino-6-fluoro-2-[(6-methoxy-2-methyl-1,2,3,4-tetra-hydroisoquinolin-7-yl)amino]-quinazolin-7-yl}amino)pyridin-4-yl]methanol]"
20,53.7 nM,"CCNS(=O)(=O)c1cccc(-c2ccc3cnc(Nc4cc5c(cc4OC)CCNC5)nc3c2)c1 [Compound 1-84, N-ethyl-3-{2-[(6-methoxy-1,2,3,4-tetrahydroisoquinolin-7-yl)amino]quinazolin-7-yl}benzene-1-sulfonamide]"
21,0.038 nM,"Cc1c(-c2cc3nc(Nc4ccc5c(c4)CCN(C)CC5)ncc3c(N)c2F)cnc2c1NCCO2 [Compound 2-119, 6-fluoro-7-(8-methyl-2,3-dihydro-1H-pyrido[2,3-b][1,4]oxazin-7-yl)-N~2~- (3-methyl-2,3,4,5-tetrahydro-1H-3-benzazepin-7-yl)quinazoline-2,5-diamine]"
22,57.7 nM,CCS(=O)(=O)Cc1ccc(Nc2ncc3c(N)c(F)c(-c4cnc5c(c4C)NCCO5)c(Cl)c3n2)cc1 [Compound 2-134]
23,0.255 nM,CNC(=O)c1ccc(Nc2ncc3c(N)cc(N4C(=O)OC[C@@H]4C)cc3n2)cc1 [Compound 3-79]
24,0.0946 nM,"Cc1c(-c2c(F)c(N)c3cnc(Nc4ccc(S(C)(=O)=O)cc4)nc3c2Cl)cnc2c1NCCO2 [Compound 2-103, (+ or −)-8-chloro-6-fluoro-7-(8-methyl-2,3-dihydro-1H-pyrido[2,3-b][1,4]oxazin-7-yl)-N~2~- [4-(methylsulfonyl)phenyl] quinazoline-2,5-diamine]"
25,14.3 nM,"COc1nc(C2(C#N)CC2)ccc1Nc1ncc2c(N)c(F)c(-c3cnc4c(c3C)NCCO4)cc2n1 [Compound 2-68, 1-(5-{[5-amino-6-fluoro-7-(8-methyl-2,3-dihydro-1H-pyrido[2,3-b][1,4]oxazin-7-yl)quinazolin-2-yl]amino}-6-methoxypyridin-2-yl)cyclopropane-1-carbonitrile]"
26,1.62 nM,"COc1cc(C(C)S(C)(=O)=O)ccc1Nc1ncc2c(N)c(F)c(-c3cnc4c(c3C)NCCO4)cc2n1 (single isomer, unassigned) [Compound 2-55, (R or S)-6-fluoro-N˜2˜-{2-methoxy-4-[1-(methylsulfonyl)ethyl]phenyl}-7-(8-methyl-2,3-dihydro-1H-pyrido[2,3-b][1,4]oxazin-7-yl)quinazoline-2,5-diamine]"
27,0.0508 nM,"Cc1c(-c2cc3nc(Nc4ccc5c(c4)CN(C)CC54CC4)ncc3c(N)c2F)cnc2c1NCCO2 [Compound 2-73, 6-fluoro-7-(8-methyl-2,3-dihydro-1H-pyrido[2,3-b][1,4]oxazin-7-yl)-N~2~- (2′-methyl-2′,3′-dihydro-1′H-spiro[cyclopropane-1,4′-isoquinolin]-7′-yl)quinazoline-2,5-diamine]"
28,120 nM,"COc1cc2c(cc1Nc1ncc3ccc(-c4cccc(C5CCC(=O)N5)c4)cc3n1)CN(C)CC2 (racemic) [Compound 1-99, (R and S)-5-(3-{2-[(6-methoxy-2-methyl-1,2,3,4-tetrahydroisoquinolin-7-yl)amino]quinazolin-7-yl}phenyl)pyrrolidin-2-one]"
29,0.0422 nM,"CN1CCc2ccc(Nc3ncc4c(N)c(F)c(-c5cncc6[nH]ccc56)cc4n3)cc2C1 [Compound 2-139, 6-fluoro-N~2~-(2-methyl-1,2,3,4-tetrahydroisoquinolin-7-yl)-7-(1H-pyrrolo[2,3-c]pyridin-4-yl)quinazoline-2,5-diamine]"
